Measurements: US10189816B2, “Substituted pyridines as inhibitors of human immunodeficiency virus replication” (priority 2015, dated 2019)
Read-outs that look alike come from different tables or passages of the source.

System: NL-RLuc virus
Experiment: Inhibition of HIV replication (NL-RLuc reporter virus in MT-2 cells, luciferase readout)
Type: cell-based
Details: Human immunodeficiency virus 1, MT2, 120 h
From the text: Inhibition of HIV replication: A recombinant NL-RLuc proviral clone was constructed in which a section of the nef gene from NL4-3 was replaced with the Renilla Luciferase gene. This virus is fully infectious and can undergo multiple cycles of replication in cell culture. In addition, the luciferous reporter provides a simple and easy method for quantitating the extent of virus growth and consequently, the antiviral activity of test compounds. The plasmid pNLRLuc contains the proviral NL-Rluc DNA cloned into pUC18 at the PvuII site. The NL-RLuc virus was prepared by transfection of 293T cells with the plasmid pNLRLuc. Transfections were performed using the LipofectAMINE PLUS kit from Invitrogen (Carlsbad, Calif.) according to the manufacturer and the virus generated was titered in MT-2 cells. For susceptibility analyses, the titrated virus was used to infect MT-2 cells in the presence of compound, and after 5 days of incubation, cells were processed and quantitated for virus growth by the amount of expressed luciferase. Assay media was RPMI 1640 supplemented with 10% heat inactivated fetal bovine serum (FBS), 100 units/ml penicillin G/100 units/ml streptomycin, 10 mM HEPES buffer pH 7.55 and 2 mM L-glutamine. The results from at least 2 experiments were used to calculate the EC50 values. Luciferase was quantitated using the Dual Luciferase kit from Promega (Madison, Wis.). Susceptibility of viruses to compounds was determined by incubation in the presence of serial dilutions of the compound. The 50% effective concentration (EC50) was calculated by using the exponential form of the median effect equation where (Fa)=1/[1+(ED50/drug conc.)^m] (Johnson V A, Byington R T. Infectivity Assay. In Techniques in HIV Research. ed. Aldovini A, Walker B D. 71-76. New York: Stockton Press.1990). Activity equal to A refers to a compound having an EC50≤100 nM, while B and C denote compounds having an EC50 between 100 nM and 1 uM (B) or >1 uM (C).

SMILES | EC50 (read-out: Activity) [µM] | EC50 (read-out: EC50 μM) [µM]
Cc1nc(C)c([C@H](OC(C)(C)C)C(=O)O)c(N2CCC(C)(C)CC2)c1-c1ccc2c(c1)CCN(Cc1ccc(F)cc1)C2 [Compound 1, (S)-2-(tert-butoxy)-2-(4-(4,4-dimethylpiperidin-1-yl)-5-(2-(4-fluorobenzyl)-1,2,3,4-tetrahydroisoquinolin-6-yl)-2,6-dimethylpyridin-3-yl)acetic acid] | < 0.1 | 0.006
Cc1nc(C)c([C@H](OC(C)(C)C)C(=O)O)c(N2CCC(C)(C)CC2)c1-c1ccc2c(c1)CCN(Cc1cccc(C(F)(F)F)c1)C2 [Compound 2, (S)-2-(tert-butoxy)-2-(4-(4,4-dimethylpiperidin-1-yl)-2,6-dimethyl-5-(2-(3-(trifluoromethyl)benzyl)-1,2,3,4-tetrahydroisoquinolin-6-yl)pyridin-3-yl)acetic acid] | < 0.1 | 
Cc1cccc(CN2CCc3cc(-c4c(C)nc(C)c([C@H](OC(C)(C)C)C(=O)O)c4N4CCC(C)(C)CC4)ccc3C2)c1 [Compound 3, (S)-2-(tert-butoxy)-2-(4-(4,4-dimethylpiperidin-1-yl)-2,6-dimethyl-5-(2-(3-methylbenzyl)-1,2,3,4-tetrahydroisoquinolin-6-yl)pyridin-3-yl)acetic acid] | < 0.1 | 
Cc1ccccc1CN1CCc2cc(-c3c(C)nc(C)c([C@H](OC(C)(C)C)C(=O)O)c3N3CCC(C)(C)CC3)ccc2C1 [Compound 4, (S)-2-(tert-butoxy)-2-(4-(4,4-dimethylpiperidin-1-yl)-2,6-dimethyl-5-(2-(2-methylbenzyl)-1,2,3,4-tetrahydroisoquinolin-6-yl)pyridin-3-yl)acetic acid] | < 0.1 | 
Cc1ccc(CN2CCc3cc(-c4c(C)nc(C)c([C@H](OC(C)(C)C)C(=O)O)c4N4CCC(C)(C)CC4)ccc3C2)cc1 [Compound 5, (S)-2-(tert-butoxy)-2-(4-(4,4-dimethylpiperidin-1-yl)-2,6-dimethyl-5-(2-(4-methylbenzyl)-1,2,3,4-tetrahydroisoquinolin-6-yl)pyridin-3-yl)acetic acid] | < 0.1 | 
COc1cccc(CN2CCc3cc(-c4c(C)nc(C)c([C@H](OC(C)(C)C)C(=O)O)c4N4CCC(C)(C)CC4)ccc3C2)c1 [Compound 6, (S)-2-(tert-butoxy)-2-(4-(4,4-dimethylpiperidin-1-yl)-5-(2-(3-methoxybenzyl)-1,2,3,4-tetrahydroisoquinolin-6-yl)-2,6-dimethylpyridin-3-yl)acetic acid] | < 0.1 | 
Cc1nc(C)c([C@H](OC(C)(C)C)C(=O)O)c(N2CCC(C)(C)CC2)c1-c1ccc2c(c1)CCN(Cc1cccc(F)c1)C2 [Compound 7, (S)-2-(tert-butoxy)-2-(4-(4,4-dimethylpiperidin-1-yl)-5-(2-(3-fluorobenzyl)-1,2,3,4-tetrahydroisoquinolin-6-yl)-2,6-dimethylpyridin-3-yl)acetic acid] | < 0.1 | 0.004
Cc1nc(C)c([C@H](OC(C)(C)C)C(=O)O)c(N2CCC(C)(C)CC2)c1-c1ccc2c(c1)CCN(Cc1ccc(C(F)(F)F)cc1)C2 [Compound 8, (S)-2-(tert-butoxy)-2-(4-(4,4-dimethylpiperidin-1-yl)-2,6-dimethyl-5-(2-(4-(trifluoromethyl)benzyl)-1,2,3,4-tetrahydroisoquinolin-6-yl)pyridin-3-yl)acetic acid] | < 0.1 | 
Cc1nc(C)c([C@H](OC(C)(C)C)C(=O)O)c(N2CCC(C)(C)CC2)c1-c1ccc2c(c1)CCN(Cc1ccccc1F)C2 [Compound 9, (S)-2-(tert-butoxy)-2-(4-(4,4-dimethylpiperidin-1-yl)-5-(2-(2-fluorobenzyl)-1,2,3,4-tetrahydroisoquinolin-6-yl)-2,6-dimethylpyridin-3-yl)acetic acid] | < 0.1 | 
Cc1nc(C)c([C@H](OC(C)(C)C)C(=O)O)c(N2CCC(C)(C)CC2)c1-c1ccc2c(c1)CCN(Cc1cccc(C(=O)O)c1)C2 [Compound 10, (S)-3-((6-(5-(tert-butoxy(carboxy)methyl)-4-(4,4-dimethylpiperidin-1-yl)-2,6-dimethylpyridin-3-yl)-3,4-dihydroisoquinolin-2(1H)-yl)methyl)benzoic acid] | > 1 | 1.48
